These results are taken from patent US20110117054A1, “USE OF RIBAVIRIN IN BLOOD COAGULATION DISORDER” (National University Corporation Nagoya University, priority 2007, published 2011).

The test has as its system HCV. The experiment in a line: HCV eradication in HCV positive hemophilia patients (Working Example 6). The class given is in vivo, hepatitis C virus. As to conditions: Patient No. 6, interferon-α-2b alone prior to administration in this example. On the procedure:
In Table 5, the severity of hemophilia was rated as mild when the level of coagulation factors exceeded 5%, moderate when this level was from 1 to 5%, and severe when this level was below 1%. The HCV-RNA level was measured with an Amplicor HCV Assay, version 2 (Roche) at the start of administration. The genotype of the HCV virus was determined from the base sequence of the 5′-UTR region thereof. HCV eradication was indicated as “yes” when HCV-RNA viruses were not detected for 24 weeks following the end of administration. The HIV infection state was determined by the HIV antibodies using a particle agglutination assay kit (Fujirebio Inc.).

As for interferon-α-2b, the HCV eradication entry was “not eradicated”.
